According to US8802597B2, “Herbicidal pyrimidines” (E I du Pont de Nemours and Company, priority 2003, dated 2014):

Legend:
Experiment in all cases: Test A pre/postemergence
Type in all cases: in vivo
[1] = test system: crabgrass (Digitaria sanguinalis)
How it was run: (§1)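 Ratings: 0 = no effect, 100 = complete control, assessed visually about ten days post-treatment in a greenhouse. Applications: soil-directed preemergence spray and postemergence spray on 1- to 2-leaf plants, both using a surfactant-containing non-phytotoxic solvent formulation.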

[2] = test system: redroot pigweed (Amaranthus retroflexus)
How it was run: as §1

[3] = test system: giant foxtail (Setaria faberi)
How it was run: as §1

[4] = test system: barnyardgrass (Echinochloa crus-galli)
How it was run: as §1

[5] = test system: velvetleaf (Abutilon theophrasti)
How it was run: as §1

[6] = test system: morningglory (Ipomoea spp.)
How it was run: as §1

[7] = Postemergence, 125 g ai/ha, 0 to 100 scale (0 no effect, 100 complete control)
[8] = Postemergence, 500 g ai/ha, 0 to 100 scale (0 no effect, 100 complete control)
[9] = Preemergence, 125 g ai/ha, 0 to 100 scale where 0 is no effect and 100 is complete control, approximately ten days
[10] = Preemergence, 500 g ai/ha, 0 to 100 scale where 0 is no effect and 100 is complete control, approximately ten days

| SMILES | Plant response rating, Crabgrass [1, 7] | Plant response rating, Crabgrass [1, 8] | Plant response rating, Crabgrass [1, 9] | Plant response rating, Crabgrass [1, 10] | Plant response rating, Pigweed [2, 7] | Plant response rating, Pigweed [2, 8] | Plant response rating, Pigweed [2, 9] | Plant response rating, Pigweed [2, 10] | Plant response rating, Foxtail, Giant [3, 7] | Plant response rating, Foxtail, Giant [3, 8] | Plant response rating, Foxtail, Giant [3, 9] | Plant response rating, Foxtail, Giant [3, 10] | Plant response rating, Barnyardgrass [4, 7] | Plant response rating, Barnyardgrass [4, 8] | Plant response rating, Barnyardgrass [4, 9] | Plant response rating, Barnyardgrass [4, 10] | Plant response rating, Velvetleaf [5, 7] | Plant response rating, Velvetleaf [5, 8] | Plant response rating, Velvetleaf [5, 9] | Plant response rating, Velvetleaf [5, 10] | further results |
| --- | --- | --- | --- | --- | --- | --- | --- | --- | --- | --- | --- | --- | --- | --- | --- | --- | --- | --- | --- | --- | --- |
| CC(C)c1nc(N)c(Cl)c(C(=O)[O-])n1.[Na+] [Compound 109] | 0 | 10 | 0 | 25 | 60 | 85 | 50 | 80 | 0 | 10 | 0 | 5 | 0 | 10 | 0 | 25 | 25 | 80 | 15 | 50 | Plant response rating, Morningglory [6, 7]: 70; Plant response rating, Morningglory [6, 8]: 80; Plant response rating, Morningglory [6, 9]: 30; Plant response rating, Morningglory [6, 10]: 95 |
| COC(=O)c1nc(-c2ccc(SC)cc2)nc(N)c1Cl [Compound 121] | 0 | 0 | 0 | 0 | 0 | 0 | 0 | 0 | 0 | 0 | 0 | 0 | 0 | 5 | 0 | 0 | 0 | 0 | 0 | 0 | Plant response rating, Morningglory [6, 7]: 0; Plant response rating, Morningglory [6, 8]: 10; Plant response rating, Morningglory [6, 9]: 0; Plant response rating, Morningglory [6, 10]: 0 |
| CC(C)=NOC(=O)c1nc(C2CC2)nc(N)c1Cl [Compound 146] | 20 | 80 | 35 | 75 | 90 | 95 | 75 | 95 | 80 | 85 | 60 | 90 | 70 | 90 | 65 | 90 | 85 | 100 | 85 | 100 | Plant response rating, Morningglory [6, 7]: 85; Plant response rating, Morningglory [6, 8]: 100; Plant response rating, Morningglory [6, 9]: 95; Plant response rating, Morningglory [6, 10]: 100 |
| COCCOCCOC(=O)c1nc(C2CC2)nc(N)c1Cl [Compound 141] | 25 | 80 | 60 | 85 | 90 | 100 | 80 | 85 | 40 | 85 | 5 | 85 | 80 | 90 | 35 | 75 | 85 | 100 | 80 | 85 | Plant response rating, Morningglory [6, 7]: 90; Plant response rating, Morningglory [6, 8]: 90; Plant response rating, Morningglory [6, 9]: 85; Plant response rating, Morningglory [6, 10]: 95 |
| CCOC(=O)c1nc(-c2ccc(Cl)cc2)nc(N)c1I [Compound 137] | 0 | 0 | 0 | 0 | 25 | 45 | 0 | 0 | 0 | 0 | 0 | 0 | 0 | 0 | 0 | 0 | 45 | 60 | 0 | 0 | Plant response rating, Morningglory [6, 7]: 5; Plant response rating, Morningglory [6, 8]: 30; Plant response rating, Morningglory [6, 9]: 0; Plant response rating, Morningglory [6, 10]: 0 |
| CC(C)OC(=O)c1nc(-c2ccc(Cl)cc2)nc(N)c1Cl [Compound 102] | 10 | 10 | 0 | 0 | 50 | 65 | 10 | 15 | 0 | 0 | 0 | 0 | 0 | 0 | 0 | 0 | 45 | 70 | 10 | 20 | Plant response rating, Morningglory [6, 7]: 0; Plant response rating, Morningglory [6, 8]: 15; Plant response rating, Morningglory [6, 9]: 0; Plant response rating, Morningglory [6, 10]: 0 |
| COC(=O)COc1nc(C2CC2)nc(N)c1Cl [Compound 112] | 0 | 0 | 0 | 10 | 20 | 40 | 10 | 30 | 0 | 0 | 0 | 0 | 0 | 0 | 0 | 10 | 20 | 35 | 0 | 10 | Plant response rating, Morningglory [6, 7]: 55; Plant response rating, Morningglory [6, 8]: 50; Plant response rating, Morningglory [6, 9]: 0; Plant response rating, Morningglory [6, 10]: 10 |
